Measured values taken from PMC5943252, “Contrasting roles for actin in the cellular uptake of cell penetrating peptide conjugates” (Scientific Reports, 2018).
“Also recorded” adds a separate entry of the source.

Key:
[1] = system: A431 cells; experiment: Flow cytometry of cellular uptake of EGFP-R8 in the presence of actin inhibitors; format: cell-based; settings: for Normalised Fluoresence Intensity (EGFP-R8): three independent experiments
Procedure: (§1) A431 cells were seeded onto 12-well plates and cultured for 24 hr to be ~80% confluent on the day of experiment. Cells were washed twice with PBS and then incubated with diluent control (DMSO/dH2O) or actin inhibitors as previously described. They were then loaded with serum-free DMEM containing either 2 µM EGFP-R8, 5 µg/ml TF-647 or 0.1 mg/ml Dex-647 in the presence or absence of actin inhibitors for times stipulated in the figure legends. The plates were then placed on ice to prevent further uptake and washed 3x with either ice-cold PBS or 0.5 mg/ml heparin in PBS. To remove the plasma membrane bound TF, cells were washed 3x with ice-cold PBS followed by an incubation for 1 min in ice-cold acid wash (0.2 M acetic acid, 0.2 M NaCl, pH 2.0)[33]. All cells were then washed twice with PBS at room temperature before trypsinisation at 37 °C for 5 min before placing the detached cells in centrifuge tubes and centrifuging at 4 °C for 3 min at 800 × g. The obtained cell suspension was washed 3x with ice-cold PBS and finally resuspended in 300 µl ice-cold PBS for measurement of cell-associated fluorescence (cell gate 50,000 cells) by flow cytometry on a BD FACSVerse utilising a 488 laser and 527/32 filter for EGFP analysis and a 633 nm laser and 660/10 filter for Alexa 647. Cells were gated using FSC-A/SSC-A to isolate single cell populations and analysed using FlowJo.
Flow cytometry measurements represent the mean fluorescence from three independent experiments performed in duplicate, where each individual data point was the geometric mean. A two-tailed unpaired Students t-test was used to test for differences within experiments. Significant differences were classed as having a P value of < 0.05.

[2] = system: macrophages; settings: cited from earlier work
Text: Through interaction with the Rho GTPase, ROCKs play a central role in actin network assembly and membrane association. In A431 cells the effects of Y27632 on the actin cytoskeleton was more subtle than that observed with the agents that directly targeted actin. […] In contrast to results o ...

[3] = system: actin architecture in A431 cells; experiment: Actin cytoskeleton visualisation (Rh-P staining, confocal microscopy); format: cell-based; settings: for effect on organisation of the actin cytoskeleton: A431 cells, 4 hr, Rh-P staining
Procedure: Analysis was performed on a Leica SP5 confocal laser scanning microscope, equipped with laser lines: 405 Blue Diode (Excitation wavelength 405 nm for Hoechst 33342) Argon (Excitation wavelength 488 nm for Alexa 488 or EGFP), Helium Neon Laser 1 (Excitation wavelength 543 nm for Tetramethyl-Rhodamine Phalloidin (Rh-P)) and Laser 2 (Excitation wavelength 633 nm for Alexa 647 conjugates). All images presented in this study were obtained using a HCX PL APO 63x 1.4 NA oil immersion objective with Leica Type F immersion oil. Parameters “Gain” and “Off-set” of the individual photomultiplier tubes were adjusted between experiments in order to obtain optimal image acquisition avoiding saturation. For multi-channel image acquisition, the channels were scanned in a sequential recording mode to avoid spectral cross-talk caused by overlapping excitation and/or emission spectra of fluorophores. Acquisition mode “XYZ” and image resolutions (pixels/image) of 512 × 512 or 1024 × 1024 were selected and pinhole size was set to 1 Airy Unit. Depending on acquisition requirements the scan speed was set as either 400 or 700 Hz and for single section images, the same optical section was scanned 3x to generate a line average image. Captured images were then analysed using ImageJ. In some cases (live cell imaging) the same cells were also imaged using […] microscopy (DIC).
A recently described method was utilised giving information on actin architecture at different regions of the cells termed basal and cell body and apex (CBA). For actin staining, HeLa (0.5 × 10^6 cells/well) or A431 (1.0 × 10^6 cells/well) cells in 2.5 mL D-MEM containing 10% FBS were seeded on round borosilicate No.1.5 cover slips in 6 –well plates and allowed to adhere for 24 hr at 37 °C/5% CO2, to reach a confluence of ~80%. The cells were then treated with actin disrupters as described above, washed 3x with PBS and fixed for 15 min at room temperature with 3% PFA in PBS. Cells were then washed 3x with PBS and permeabilised with 0.2% Triton X-100 in PBS at room temperature for 5 min, washed 3x with PBS and stained for cell nuclei with 1.0 µg/ml Hoechst 33342 in PBS and for polymerised actin with 1.0 µg/ml Rh-P in PBS for 15 min at room temperature. The cells were finally washed 3x with PBS and once with distilled water, coverslips were mounted in DAKO mounting medium on glass microscope slides and imaged by confocal microscopy.

[4] = system: A431 cells; experiment: Flow cytometry of transferrin-Alexa647 uptake with acid wash; format: cell-based; settings: 10 µM Cyt D, 15 min preincubation, then 5 µg/ml TF-647 for 30 min with Cyt D, acid washing of surface label, three separate experiments
Procedure: as §1, with “All cells were then washed twice with PBS at room temperature before trypsinisation at 37 °C for 5 min before placing the detached cells in centrifuge tubes and centrifuging at 4 °C for 3 min at 800 × g.” left out
Flow cytometry measurements represent the mean fluorescence from three independent experiments performed in duplicate, where each individual data point was the geometric mean. […]

[5] = system: A431 cells; experiment: Live cell confocal microscopy of uptake of endocytic probes and R8 conjugates, with or without actin inhibitors; format: cell-based; settings: 10 µM Cyt D, 15 min preincubation
Procedure: (§2) HeLa or A431 cells were seeded on 35 mm MatTek dishes (Ashland, US) at respective densities of 5 × 10^5 cells/dish and 1.0 × 10^6 cells/dish and maintained in 2.5 mL D-MEM containing 10%, 100 IU/mL penicillin and 100 µg/mL streptomycin. Cells were then allowed to adhere for 24 hr at 37 °C/5% CO2 to reach a confluence of ~80%. On the day of experimentation, they were washed with PBS and then incubated with 100 µl serum-free D-MEM (thus reducing well described serum binding effects[32]) containing either 2 µM CPP conjugate (R8-Alexa488 or EGFP-R8), 5 µg/ml transferrin-Alexa 647 (TF-647) or 0.1 mg/ml dextran (10 kDa)-Alexa 647 (Dex-647). The cells were then incubated for 1 hr (or 30 min for TF-647) at 37 °C/5% CO2 before washing 3x with PBS (TF-647 or Dex-647) or PBS 0.5 mg/mL heparin (R8-conjugates). They were then washed once with PBS, prior to the addition of 2 mL of imaging medium (phenol red free RPMI, 20 mM HEPES pH 7.4) and analysis by live cell confocal microscopy.
Cells were seeded on MatTek dishes as previously described and were washed with PBS before preincubation at 37 °C with diluent control (DMSO) or actin inhibitors: 10 µM Cyt D for 15 min; 0.1–1 µM Lat B for 30 min; 0.2–4 µM JAS for 45 min; 50–100 µM Y27632 for 4 hr in serum-free D-MEM at 37 °C/5% CO2. Endocytic probes (TF-647, Dex-647) or R8-conjugates were then incubated with the cells in the absence (control) or presence of the inhibitors and further incubated at 37 °C/5% CO2 for times specified in figure legends prior to analysis by confocal microscopy. For pulse chase experiments, A431 cells were incubated with 0.1 mg/ml Dex-647 for 2 hr (pulse) followed by washing and a further 4 hr (chase) in fresh complete growth medium. EGFP-R8 (2 µM) was then added for 1 hr in the absence or presence of 10 µM Cyt D. EGFP-R8 and Dex-647 subcellular distribution was then analysed in live cells using confocal microscopy. For low temperature experiments, cells were preincubated with Cyt D as above and then placed on ice for 2 min prior to addition of ice cold EGFP-R8. The cells were then maintained under these conditions for 1 hr prior to analysis by confocal microscopy.
Analysis was performed on a Leica SP5 confocal laser scanning microscope, equipped with laser lines: 405 Blue Diode (Excitation wavelength 405 nm for Hoechst 33342) Argon (Excitation wavelength 488 nm for Alexa 488 or EGFP), Helium Neon Laser 1 (Excitation wavelength 543 nm for Tetramethyl-Rhodamine Phalloidin (Rh-P)) and Laser 2 (Excitation wavelength 633 nm for Alexa 647 conjugates). All images presented in this study were obtained using a HCX PL APO 63x 1.4 NA oil immersion objective with Leica Type F immersion oil. Parameters “Gain” and “Off-set” of the individual photomultiplier tubes were adjusted between experiments in order to obtain optimal image acquisition avoiding saturation. For multi-channel image acquisition, the channels were scanned in a sequential recording mode to avoid spectral cross-talk caused by overlapping excitation and/or emission spectra of fluorophores. Acquisition mode “XYZ” and image resolutions (pixels/image) of 512 × 512 or 1024 × 1024 were selected and pinhole size was set to 1 Airy Unit. Depending on acquisition requirements the scan speed was set as either 400 or 700 Hz and for single section images, the same optical section was scanned 3x to generate a line average image. Captured images were then analysed using ImageJ. […]

[6] = system: HeLa cells; experiment: Live cell confocal microscopy of uptake of endocytic probes and R8 conjugates, with or without Cyt D; format: cell-based; settings: 10 µM Cyt D, 15 min preincubation
Procedure: as §2, with “They were then washed once with PBS, prior to the addition of 2 mL of imaging medium (phenol red free RPMI, 20 mM HEPES pH 7.4) and analysis by live cell confocal microscopy.” left out
Cells were seeded on MatTek dishes as previously described and were washed with PBS before preincubation at 37 °C with diluent control (DMSO) or actin inhibitors: 10 µM Cyt D for 15 min; 0.1–1 µM Lat B for 30 min; 0.2–4 µM JAS for 45 min; 50–100 µM Y27632 for 4 hr in serum-free D-MEM at 37 °C/5% CO2. […] EGFP-R8 (2 µM) was then added for 1 hr in the absence or presence of 10 µM Cyt D. EGFP-R8 and Dex-647 subcellular distribution was then analysed in live cells using confocal microscopy. […]

[7] = system: HeLa; settings: cited from earlier work
Text: (§3) Cyt D binds to the fast-growing ends of actin nuclei and filaments, preventing addition of monomeric actin to these sites. […] Here we further explored these contradictory effects by also performing uptake studies with recomb ...

[8] = system: A431; settings: cited from earlier work
Text: as §3

SMILES | inhibition of cell uptake of EGFP-R8 ([1]; 100 µM Y27632, 4 hr preincubation, then 2 µM EGFP-R8 for 1 hr with Y27632, P = 0.02) | Normalised Fluoresence Intensity (EGFP-R8) ([1]; 100 µM Y27632, 4 hr preincubation, then 2 µM EGFP-R8 for 1 hr with Y27632, mean of geometric means) | inhibition of uptake of 70 KDa dextran [2] | effect on organisation of the actin cytoskeleton ([3]; Y27632 1 and 10 μM (up to 10 μM)) | effect on organisation of the actin cytoskeleton ([3]; Y27632 at higher concentrations (50, 100 μM)) | Normalised Fluoresence Intensity (EGFP-R8) ([1]; 10 µM Cyt D, 15 min preincubation, then 2 µM EGFP-R8 for 1 hr with Cyt D, geometric means, normalised to diluent control) | fold increase in intracellular fluorescence (EGFP-R8 uptake) ([1]; 10 µM Cyt D, 15 min preincubation, then 2 µM EGFP-R8 for 1 hr with Cyt D, serum-free D-MEM, 37 °C, washed, trypsinised, vs diluent control, P = 0.0036, three independent experiments) | effect on fluorescence uptake of transferrin [4] | effect on internalisation of EGFP-R8 ([5]; then 2 µM EGFP-R8 for 1 hr with Cyt D, heparin wash) | effect on uptake of R8-Alexa488 ([5]; then 2 µM R8-Alexa488 for 1 hr with Cyt D, heparin wash) | effect on uptake of dextran-Alexa647 ([5]; then 0.1 mg/ml 10 kDa Dex-647 for 1 hr with Cyt D) | effect on internalisation of R8-Alexa 488 ([6]; then 2 µM R8-Alexa 488 for 1 hr with Cyt D, heparin wash) | effect on cell associated transferrin fluorescence ([6]; then 5 µg/ml TF-647 for 30 min with Cyt D, vs control) | effect on uptake of dextran ([7]; HeLa cells) | effect on uptake of Alexa488-CPPs R8 and Tat ([7]; HeLa, flow cytometry) | effect on uptake of Alexa488-CPPs R8 and Tat ([8]; A431, flow cytometry) | effect on uptake of dextran ([8]; A431 cells) | effect on actin organisation ([3]; Cyt D at concentrations >5 µM)
C[C@@H](N)[C@H]1CC[C@H](C(=O)Nc2ccncc2)CC1.Cl.Cl (relative stereo) [Y27632, (+)-(R)-trans-4-(1-aminoethyl)-N-(4-pyridyl) cyclohexanecarboxamide dihydrochloride] | ~ 20% | 0.77 | ~ 50% | no visible changes in the organisation of the actin cytoskeleton | extensive actin deformities |  |  |  |  |  |  |  |  |  |  |  |  | 
C=C1[C@@H](C)[C@H]2[C@H](Cc3ccccc3)NC(=O)[C@]23[C@H](OC(C)=O)/C=C/[C@@](C)(O)C(=O)[C@@H](C)C/C=C/[C@H]3[C@@H]1O [Cyt D, cytochalasin D] |  |  |  |  |  | 4.55 | 4.5 fold | no difference in fluorescence uptake | dramatically enhanced | less of a noticeable reduction in uptake; also recorded: inhibition | dramatically increased | inhibited; also recorded: reduction in uptake | not markedly different | no effect | inhibited | inhibited | increased uptake | completely destroys actin organisation
